Test results as given in patent US6107317A, “N-(substituted glycyl)-thiazolidines, pharmaceutical compositions containing them and their use in inhibiting dipeptidyl peptidase-IV” (Novartis AG, priority 1999, dated 2000).
Counter-ions that a name gives are not always drawn.

How the values were obtained:
DPP-IV = target: T1, DPP-IV (Homo sapiens, UniProt P27487); experiment: Caco-2 DPP-IV Assay (inhibition of DPP-IV activity from human colonic carcinoma cell extracts); type: biochemical; conditions: solubilized Caco-2 protein 20 μg; substrate H-Alanine-Proline-pNA; pH 7.4; room temperature, 10 minutes
T1 construct: host or cells: Caco-2, differentiated to induce DPP-IV expression; cell extract solubilized in 0.5% nonidet-P40
Procedure: The human colonic carcinoma cell line Caco-2 was obtained from the American Type Culture Collection (ATCC HTB 37). Differentiation of the cells to induce DPP-IV expression was accomplished as described by Reisher, et al. in an article entitled "Increased expression of . . . intestinal cell line Caco-2" in Proc. Natl. Acad. Sci., Vol. 90, pgs. […] Cell extract is prepared from cells solubilized in 10 mM Tris-HCl, 0.15 M NaCl, 0.04 t.i.u. aprotinin, 0.5% nonidet-P40, pH 8.0, which is centrifuged at 35,000 g for 30 min. at 4° C. to remove cell debris. The assay is conducted by adding 20 μg solubilized Caco-2 protein, diluted to a final volume of 125 μl in assay buffer (25 mM Tris-HCl pH 7.4, 140 mM NaCl, 10 mM KCl, 1% bovine serum albumin) to microtiter plate wells. The reaction is initiated by adding 25μl of 1 mM substrate (H-Alanine-Proline-pNA; pNA is p-nitroaniline). The reaction is run at room temperature for 10 minutes after which time a 19 μl volume of 25% glacial acetic acid is added to stop the reaction. […] A standard curve of free p-nitroaniline is generated using 0-500 μM solutions of free pNA in assay buffer. The curve generated is linear and is used for interpolation of substrate consumption (catalytic activity in nmoles substrate cleaved/min). […] The potency of the test compounds as DPP-IV inhibitors, expressed as IC50, is calculated from 8-point, dose-response curves using a 4-parameter logistic function.

human plasma DPP-IV = target: T2, human plasma DPP-IV (Homo sapiens, UniProt P27487); experiment: DPP-IV activity in human plasma; type: biochemical; conditions: substrate H-Glycine-Proline-AMC, pH 7.8, room temperature, 20 min
T2 construct: DPP-IV activity in human and rat plasma; from tissue; host or cells: human plasma
Procedure: (§1) Briefly, five μl of plasma are added to 96-well flat-bottom mictotiter plates (Falcon), followed by the addition of 5 μl of 80 mM MgCl2 in incubation buffer (25 mM HEPES, 140 mM NaCl, 1% RIA-grade BSA, pH 7.8). After a 5 min. incubation at room temperature, the reaction is initiated by the addition of 10 μl of incubation buffer containing 0.1 mM substrate (H-Glycine-Proline-AMC; AMC is 7-amino-4-methylcoumarin). The plates are covered with aluminum foil (or kept in the dark) and incubated at room temperature for 20 min. […] A fluorescence-concentration curve of free AMC is generated using 0-50 μM solutions of AMC in assay buffer. The curve generated is linear and is used for interpolation of substrate consumption (catalytic activity in nmoles substrate cleaved/min). As with the previous assay, the potency of the test compounds as DPP-IV inhibitors, expressed as IC50, is calculated from 8-point, dose-response curves using a 4 parameter logistic function.

rat plasma DPP-IV = target: T3, rat plasma DPP-IV (Rattus norvegicus, UniProt P14740); experiment: DPP-IV activity in rat plasma; type: biochemical; conditions: substrate H-Glycine-Proline-AMC, pH 7.8, room temperature, 20 min
T3 construct: DPP-IV activity in human and rat plasma; from tissue; host or cells: rat plasma
Procedure: as §1

[1] = diabetic and non-diabetic subjects, Diabetes, Vol. 44, pgs. 1126-1131; cited from earlier work

T3 sequence (P14740 37-767 limits assumed): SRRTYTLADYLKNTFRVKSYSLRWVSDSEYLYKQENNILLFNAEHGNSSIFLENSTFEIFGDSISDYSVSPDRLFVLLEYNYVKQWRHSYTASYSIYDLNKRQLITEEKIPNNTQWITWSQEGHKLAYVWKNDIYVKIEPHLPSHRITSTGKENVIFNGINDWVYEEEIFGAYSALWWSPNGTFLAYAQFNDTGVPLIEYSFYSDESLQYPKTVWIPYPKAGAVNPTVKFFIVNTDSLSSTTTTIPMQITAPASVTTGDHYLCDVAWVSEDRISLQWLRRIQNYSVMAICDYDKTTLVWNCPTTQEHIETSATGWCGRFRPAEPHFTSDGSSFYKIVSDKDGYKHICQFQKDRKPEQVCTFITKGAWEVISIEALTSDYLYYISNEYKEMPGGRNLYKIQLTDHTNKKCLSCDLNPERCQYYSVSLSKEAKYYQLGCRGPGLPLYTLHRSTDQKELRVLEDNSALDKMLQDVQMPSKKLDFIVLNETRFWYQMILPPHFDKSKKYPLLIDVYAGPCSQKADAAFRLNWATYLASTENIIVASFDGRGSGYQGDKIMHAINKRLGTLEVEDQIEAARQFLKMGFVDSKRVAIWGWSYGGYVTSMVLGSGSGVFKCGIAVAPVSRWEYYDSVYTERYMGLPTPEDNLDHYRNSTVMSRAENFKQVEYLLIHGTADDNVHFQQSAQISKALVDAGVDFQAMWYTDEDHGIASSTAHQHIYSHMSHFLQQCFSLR
T1 sequence (P27487 whole entry): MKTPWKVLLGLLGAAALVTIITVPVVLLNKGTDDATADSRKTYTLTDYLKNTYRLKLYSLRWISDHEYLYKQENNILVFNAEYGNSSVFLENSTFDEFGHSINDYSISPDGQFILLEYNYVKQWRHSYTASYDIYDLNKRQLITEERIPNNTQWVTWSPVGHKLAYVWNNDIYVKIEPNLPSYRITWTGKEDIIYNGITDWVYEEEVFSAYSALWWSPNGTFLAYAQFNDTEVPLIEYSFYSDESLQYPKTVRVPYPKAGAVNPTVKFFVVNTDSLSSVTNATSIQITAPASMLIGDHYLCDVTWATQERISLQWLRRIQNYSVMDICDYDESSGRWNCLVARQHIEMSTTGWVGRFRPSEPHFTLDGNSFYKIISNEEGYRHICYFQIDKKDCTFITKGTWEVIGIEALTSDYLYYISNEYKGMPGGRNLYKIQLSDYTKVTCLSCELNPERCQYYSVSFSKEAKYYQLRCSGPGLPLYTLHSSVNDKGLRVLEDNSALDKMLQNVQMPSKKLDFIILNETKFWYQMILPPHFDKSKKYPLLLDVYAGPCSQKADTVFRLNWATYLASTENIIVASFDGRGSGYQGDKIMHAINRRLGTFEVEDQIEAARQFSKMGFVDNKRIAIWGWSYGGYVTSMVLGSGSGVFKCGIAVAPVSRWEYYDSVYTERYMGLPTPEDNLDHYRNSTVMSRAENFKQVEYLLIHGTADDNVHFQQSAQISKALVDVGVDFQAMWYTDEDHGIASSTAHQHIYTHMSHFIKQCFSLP
T2 sequence (P27487 39-766 limits assumed): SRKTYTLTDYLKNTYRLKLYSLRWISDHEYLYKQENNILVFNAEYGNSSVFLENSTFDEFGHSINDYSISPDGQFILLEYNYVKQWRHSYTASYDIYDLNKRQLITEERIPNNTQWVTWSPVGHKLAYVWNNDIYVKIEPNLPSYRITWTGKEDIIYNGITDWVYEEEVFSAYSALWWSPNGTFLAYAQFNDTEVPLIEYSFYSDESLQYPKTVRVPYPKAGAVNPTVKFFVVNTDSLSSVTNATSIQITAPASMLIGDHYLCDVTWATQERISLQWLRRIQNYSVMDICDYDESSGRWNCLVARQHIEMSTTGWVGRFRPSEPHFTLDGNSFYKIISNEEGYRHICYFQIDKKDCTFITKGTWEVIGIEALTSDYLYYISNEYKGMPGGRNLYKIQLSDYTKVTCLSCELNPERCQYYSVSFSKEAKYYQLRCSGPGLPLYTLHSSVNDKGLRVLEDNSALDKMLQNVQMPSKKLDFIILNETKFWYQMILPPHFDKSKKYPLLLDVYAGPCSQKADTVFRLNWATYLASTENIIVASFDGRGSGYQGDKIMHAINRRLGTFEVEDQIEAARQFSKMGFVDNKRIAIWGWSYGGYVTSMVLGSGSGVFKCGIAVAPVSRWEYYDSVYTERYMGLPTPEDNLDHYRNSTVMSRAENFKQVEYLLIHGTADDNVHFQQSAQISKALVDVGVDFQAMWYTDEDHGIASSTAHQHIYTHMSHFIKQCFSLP

IC50 (DPP-IV) | IC50 (human plasma DPP-IV) | IC50 (rat plasma DPP-IV) | Molecule | degradation when administered by subcutaneous or intravenous routes [1]
10.3 µM | 6.8 µM | 10.5 µM | O=C(CNCCNc1ccccn1)N1CCSC1 [Ex. 1, 1-[2-[(pyridin-2-yl)amino]ethylamino]acetylthiazolidine dihydrochloride] | –
25.3 µM | 5.7 µM | 3.3 µM | O=C(CNC1(CO)CCCC1)N1CCSC1 [Ex. 2, 1-[(1-hydroxymethylcyclopent-1-yl)amino]acetylthiazolidine hydrochloride] | –
31.1 µM | 21 µM | 7.1 µM | O=C(CNCCNc1ccc(Cl)cn1)N1CCSC1 [Ex. 4, 1-[2-[(5-chloropyridin-2-yl)amino]ethylamino]acetylthiazolidine] | –
– | – | – | GLP-I amide: GLP-I amide | rapidly degraded
